Source: patent publication US20070190188A1, “Controlling Toxicity of Aminoquinoline Compounds” (The University of Mississippi, priority 2005, published 2007)

How the values were obtained:
Type in all cases: cell-based
human erythrocytes = test: In vitro methemoglobin formation, human erythrocytes, control without microsomes
Protocol: In one aspect of the present invention, an in vitro assay is developed for evaluation of biotransformation reactions leading to generation of methemoglobinemic metabolites of 8-aminoquinolines. This method uses simultaneous incubation of a test compound with the hepatic microsomes or Baculosomes® (microsomes prepared from insect cells infected with recombinant baculovirus containing a cDNA insert for a specific human P450 isozyme and NADPH-P450 reductase) and human erythrocytes followed by determination of methemoglobin formation. This allows the unstable metabolites generated in situ to react with the human erythrocytes.

CPY 2B6 = target: T1, CPY 2B6 (Homo sapiens, UniProt P20813); test: Methemoglobinemic metabolite formation with Baculosomes, CYP 2B6; conditions: mean ± S.D. of four
T1 construct: purchased; host or cells: insect cells infected with recombinant baculovirus
T1 sequence (P20813 1-491): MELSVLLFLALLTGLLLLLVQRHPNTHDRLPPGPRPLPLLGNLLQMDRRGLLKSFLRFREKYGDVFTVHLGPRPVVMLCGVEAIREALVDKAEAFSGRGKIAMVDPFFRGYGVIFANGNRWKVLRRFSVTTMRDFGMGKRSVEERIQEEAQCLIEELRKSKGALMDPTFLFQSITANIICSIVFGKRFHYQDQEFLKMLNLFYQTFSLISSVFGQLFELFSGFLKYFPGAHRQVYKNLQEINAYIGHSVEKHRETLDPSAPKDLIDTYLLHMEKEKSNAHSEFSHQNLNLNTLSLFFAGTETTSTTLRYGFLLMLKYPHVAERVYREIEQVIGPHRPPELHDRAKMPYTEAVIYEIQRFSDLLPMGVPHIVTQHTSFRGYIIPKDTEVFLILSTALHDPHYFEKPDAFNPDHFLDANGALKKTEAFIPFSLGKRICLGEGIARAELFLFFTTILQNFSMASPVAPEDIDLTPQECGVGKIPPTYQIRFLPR
Protocol: (§1) This method uses simultaneous incubation of a test compound with the hepatic microsomes or Baculosomes® (microsomes prepared from insect cells infected with recombinant baculovirus containing a cDNA insert for a specific human P450 isozyme and NADPH-P450 reductase) and human erythrocytes followed by determination of methemoglobin formation. This allows the unstable metabolites generated in situ to react with the human erythrocytes.

CYP 1A2 = target: T2, CYP 1A2 (Homo sapiens, UniProt P05177); test: Methemoglobinemic metabolite formation with Baculosomes, CYP 1A2; conditions: mean ± S.D. of four
T2 construct: purchased; host or cells: insect cells infected with recombinant baculovirus
T2 sequence (P05177 2-516 limits assumed): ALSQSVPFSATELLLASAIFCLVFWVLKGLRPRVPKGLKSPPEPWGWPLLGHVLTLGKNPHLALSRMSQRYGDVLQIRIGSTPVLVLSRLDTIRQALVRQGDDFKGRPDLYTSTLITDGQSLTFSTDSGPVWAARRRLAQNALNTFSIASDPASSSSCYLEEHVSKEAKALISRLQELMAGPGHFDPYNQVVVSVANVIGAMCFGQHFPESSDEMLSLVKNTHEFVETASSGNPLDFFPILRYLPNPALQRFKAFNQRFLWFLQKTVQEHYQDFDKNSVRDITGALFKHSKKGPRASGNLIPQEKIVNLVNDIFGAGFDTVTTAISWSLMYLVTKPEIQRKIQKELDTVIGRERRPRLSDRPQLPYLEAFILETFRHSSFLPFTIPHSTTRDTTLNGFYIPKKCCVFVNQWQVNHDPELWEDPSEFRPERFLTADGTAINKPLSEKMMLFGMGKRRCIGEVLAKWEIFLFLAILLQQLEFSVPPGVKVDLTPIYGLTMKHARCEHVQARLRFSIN
Protocol: as §1

CYP 2E1 = target: T3, CYP 2E1 (Homo sapiens, UniProt P05181); test: Methemoglobinemic metabolite formation with Baculosomes, CYP 2E1; conditions: mean ± S.D. of four
T3 construct: purchased; host or cells: insect cells infected with recombinant baculovirus
T3 sequence (P05181 whole entry): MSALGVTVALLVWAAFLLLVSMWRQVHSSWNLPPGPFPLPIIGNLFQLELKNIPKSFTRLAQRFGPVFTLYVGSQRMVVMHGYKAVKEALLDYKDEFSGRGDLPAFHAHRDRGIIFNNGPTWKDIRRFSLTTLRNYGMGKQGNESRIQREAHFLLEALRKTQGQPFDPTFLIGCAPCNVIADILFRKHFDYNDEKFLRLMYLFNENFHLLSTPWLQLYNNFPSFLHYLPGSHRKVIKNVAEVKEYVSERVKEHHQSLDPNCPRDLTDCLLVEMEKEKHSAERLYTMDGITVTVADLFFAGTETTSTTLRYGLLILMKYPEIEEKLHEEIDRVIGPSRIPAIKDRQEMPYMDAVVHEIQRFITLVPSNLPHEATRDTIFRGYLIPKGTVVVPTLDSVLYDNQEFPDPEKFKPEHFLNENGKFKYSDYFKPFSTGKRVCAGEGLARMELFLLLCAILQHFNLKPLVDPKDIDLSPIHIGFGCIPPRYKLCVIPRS
Protocol: as §1

Compound: COc1cc(N[C@H](C)CCCN)c2nccc(C)c2c1Oc1ccc(Cl)c(Cl)c1 [NPC1161B]
- % methemoglobin formed, Supersomes None (human erythrocytes; no Baculosomes, mean ± S.D. of four): 0.980 ± 0.493%
- % methemoglobin formation, Control (human erythrocytes; no microsomes, drug 100 μM, Mean ± S.D. of four observations): 0.980 ± 0.439%
- % methemoglobin formed, CPY 2B6 (CPY 2B6): 2.855 ± 0.419%
- % methemoglobin formed, CYP 1A2 (CYP 1A2): 0.00%
- % methemoglobin formed, CYP 2E1 (CYP 2E1): 3.801 ± 1.996%
